From US20080039422A1, “Vitamin B12-Containing Compositions and Methods of Use” (Transition Therapeutics Inc., priority 2004, published 2008)

Assays:
[1] = Methylcobalamin-containing solutions; assay type: physicochemical
[2] = Methylcobalamin-containing solutions; assay type: physicochemical; remark: listed apart in the source
Description: A variety of solutions containing methylcobalamin (Me-Cbl) were tested. In one series of experiments, solutions containing ethanol, propylene glycol, or both ethanol and propylene glycol were challenged with 20 mg/ml Me-Cbl. In another series of experiments, the same solutions were challenged with 50 mg/ml Me-Cbl. The conditions were the same as those described for CN-Cbl. In both series, the excipients included: (a) 15% ethanol; (b) 20% ethanol; (c) 20% propylene glycol; (d) 40% propylene glycol; (e) 15% ethanol and 20% propylene glycol; and (f) 20% ethanol and 40% propylene glycol. Following suitable dilution, the absorbance at A340 was measured on Day 0, Day 1, and Day 2 (Table 7).

Conc of Me-Cbl ([1]; challenge 20 mg/mL, ethanol 0%, PG 0%, Day 0): 17180 µg/mL
Conc of Me-Cbl ([1]; challenge 20 mg/mL, ethanol 0%, PG 0%, Day 0 reading): 12780 µM
Conc of Me-Cbl ([1]; challenge 20 mg/mL, ethanol 0%, PG 0%, Day 1): 14030 µg/mL
Conc of Me-Cbl ([1]; challenge 20 mg/mL, ethanol 0%, PG 0%, Day 3): 13180 µg/mL
Conc of Me-Cbl ([1]; challenge 20 mg/mL, ethanol 0%, PG 20%, Day 3): 23370 µg/mL
Conc of Me-Cbl ([1]; challenge 20 mg/mL, ethanol 0%, PG 40%, Day 0): 23940 µg/mL
Conc of Me-Cbl ([1]; challenge 20 mg/mL, ethanol 0%, PG 40%, Day 1): 24340 µg/mL
Conc of Me-Cbl ([1]; challenge 20 mg/mL, ethanol 0%, PG 40%, Day 3): 24500 µg/mL
Conc of Me-Cbl ([1]; challenge 20 mg/mL, ethanol 15%, PG 0%, Day 0): 22800 µg/mL
Conc of Me-Cbl ([1]; challenge 20 mg/mL, ethanol 15%, PG 0%, Day 0 reading): 16960 µM
Conc of Me-Cbl ([1]; challenge 20 mg/mL, ethanol 15%, PG 0%, Day 1): 12530 µg/mL
Conc of Me-Cbl ([1]; challenge 20 mg/mL, ethanol 15%, PG 0%, Day 3): 11120 µg/mL
Conc of Me-Cbl ([1]; challenge 20 mg/mL, ethanol 15%, PG 20%, Day 0): 22720 µg/mL
Conc of Me-Cbl ([1]; challenge 20 mg/mL, ethanol 15%, PG 20%, Day 0 reading): 16900 µM
Conc of Me-Cbl ([1]; challenge 20 mg/mL, ethanol 15%, PG 20%, Day 1): 23450 µg/mL
Conc of Me-Cbl ([1]; challenge 20 mg/mL, ethanol 15%, PG 20%, Day 3): 21910 µg/mL
Conc of Me-Cbl ([1]; challenge 20 mg/mL, ethanol 20%, PG 0%, Day 0): 23130 µg/mL
Conc of Me-Cbl ([1]; challenge 20 mg/mL, ethanol 20%, PG 0%, Day 0 reading): 17200 µM
Conc of Me-Cbl ([1]; challenge 20 mg/mL, ethanol 20%, PG 0%, Day 1): 9180 µg/mL
Conc of Me-Cbl ([1]; challenge 20 mg/mL, ethanol 20%, PG 0%, Day 3): 9180 µg/mL
Conc of Me-Cbl ([1]; challenge 20 mg/mL, ethanol 20%, PG 40%, Day 0 reading): 16960 µM
Conc of Me-Cbl ([1]; challenge 20 mg/mL, ethanol 20%, PG 40%, Day 1): 23860 µg/mL
Conc of Me-Cbl ([1]; challenge 20 mg/mL, ethanol 20%, PG 40%, Day 3): 24100 µg/mL
Conc of Me-Cbl ([1]; challenge 50 mg/mL, ethanol 0%, PG 0%, Day 0): 12660 µg/mL
Conc of Me-Cbl ([1]; challenge 50 mg/mL, ethanol 0%, PG 0%, Day 0 reading): 9410 µM
Conc of Me-Cbl ([1]; challenge 50 mg/mL, ethanol 0%, PG 0%, Day 1): 12860 µg/mL
Conc of Me-Cbl ([1]; challenge 50 mg/mL, ethanol 0%, PG 0%, Day 3): 12860 µg/mL
Conc of Me-Cbl ([1]; challenge 50 mg/mL, ethanol 0%, PG 20%, Day 0): 58220 µg/mL
Conc of Me-Cbl ([1]; challenge 50 mg/mL, ethanol 0%, PG 20%, Day 0 reading): 43310 µM
Conc of Me-Cbl ([1]; challenge 50 mg/mL, ethanol 0%, PG 20%, Day 1): 17990 µg/mL
Conc of Me-Cbl ([1]; challenge 50 mg/mL, ethanol 0%, PG 20%, Day 3): 17790 µg/mL
Conc of Me-Cbl ([1]; challenge 50 mg/mL, ethanol 0%, PG 40%, Day 0): 57210 µg/mL
Conc of Me-Cbl ([1]; challenge 50 mg/mL, ethanol 0%, PG 40%, Day 0 reading): 42560 µM
Conc of Me-Cbl ([1]; challenge 50 mg/mL, ethanol 0%, PG 40%, Day 1): 23210 µg/mL
Conc of Me-Cbl ([1]; challenge 50 mg/mL, ethanol 0%, PG 40%, Day 3): 22160 µg/mL
Conc of Me-Cbl ([1]; challenge 50 mg/mL, ethanol 15%, PG 0%, Day 0): 56610 µg/mL
Conc of Me-Cbl ([1]; challenge 50 mg/mL, ethanol 15%, PG 0%, Day 0 reading): 42110 µM
Conc of Me-Cbl ([1]; challenge 50 mg/mL, ethanol 15%, PG 0%, Day 1): 11930 µg/mL
Conc of Me-Cbl ([1]; challenge 50 mg/mL, ethanol 15%, PG 0%, Day 3): 11320 µg/mL
Conc of Me-Cbl ([1]; challenge 50 mg/mL, ethanol 15%, PG 20%, Day 0): 56610 µg/mL
Conc of Me-Cbl ([1]; challenge 50 mg/mL, ethanol 15%, PG 20%, Day 0 reading): 42110 µM
Conc of Me-Cbl ([1]; challenge 50 mg/mL, ethanol 15%, PG 20%, Day 1): 15490 µg/mL
Conc of Me-Cbl ([1]; challenge 50 mg/mL, ethanol 15%, PG 20%, Day 3): 15450 µg/mL
Conc of Me-Cbl ([1]; challenge 50 mg/mL, ethanol 20%, PG 0%, Day 0): 58020 µg/mL
Conc of Me-Cbl ([1]; challenge 50 mg/mL, ethanol 20%, PG 0%, Day 0 reading): 43160 µM
Conc of Me-Cbl ([1]; challenge 50 mg/mL, ethanol 20%, PG 0%, Day 3): 10350 µg/mL
Conc of Me-Cbl ([1]; challenge 50 mg/mL, ethanol 20%, PG 40%, Day 1): 51150 µg/mL
Conc of Me-Cbl ([1]; challenge 50 mg/mL, ethanol 20%, PG 40%, Day 3): 48120 µg/mL
Conc of Me-Cbl ([2]; challenge 20 mg/mL, ethanol 0%, PG 20%, Day 0): 23610 µg/mL
Conc of Me-Cbl ([2]; challenge 20 mg/mL, ethanol 0%, PG 20%, Day 0 reading): 17560 µM
Conc of Me-Cbl ([2]; challenge 20 mg/mL, ethanol 0%, PG 20%, Day 1): 24020 µg/mL
Conc of Me-Cbl ([2]; challenge 20 mg/mL, ethanol 0%, PG 40%, Day 0 reading): 17800 µM
Conc of Me-Cbl ([2]; challenge 20 mg/mL, ethanol 20%, PG 40%, Day 0): 22800 µg/mL
Conc of Me-Cbl ([2]; challenge 50 mg/mL, ethanol 20%, PG 0%, Day 1): 10470 µg/mL
Conc of Me-Cbl ([2]; challenge 50 mg/mL, ethanol 20%, PG 40%, Day 0): 57620 µg/mL
Conc of Me-Cbl ([2]; challenge 50 mg/mL, ethanol 20%, PG 40%, Day 0 reading): 42860 µM
SMILES: C/C1=C2/[N-][C@H]([C@H](CC(N)=O)[C@@]2(C)CCC(=O)NC[C@H](C)OP(=O)([O-])O[C@H]2[C@@H](O)[C@@H](n3cnc4cc(C)c(C)cc43)O[C@@H]2CO)[C@]2(C)N=C(/C(C)=C3N=C(/C=C4N=C1[C@@H](CCC(N)=O)C\4(C)C)[C@@H](CCC(N)=O)[C@]\3(C)CC(N)=O)[C@@H](CCC(N)=O)[C@]2(C)CC(N)=O.[CH3-].[Co+3] [Me-Cbl, methylcobalamin]
